Assays:
[1] = test system: TRZAWR (Wheat, Winter, cv Riband); experiment: Postemergence herbicidal evaluation; format: in vivo, Triticum aestivum; conditions: postemergence
Outline: (§1)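 Each compound, dispersed in an acetone/water mix (50/50) carrying 0.5% TWEEN 20, is nozzle-sprayed at 40 psi on approximately two-week-old seedlings at about 0.0156–0.500 kg/ha. Plants are assessed 4–5 weeks afterward on a 0–9 scale relative to control; duplicate tests are averaged.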

[2] = test system: TRZAWR (Wheat, Winter, cv Riband); experiment: Preemergence herbicidal evaluation; format: in vivo, Triticum aestivum; conditions: rated 4-5 weeks after treatment
Outline: (§2)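 Herbicidal effect scored visually, 0-9, at 4 to 5 weeks against a control; compound applied preemergence by aqueous acetone spray to seeded soil at about 0.0156 to 0.500 kg/ha.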

CYPIR (Rice Flatsedge) = experiment: Postemergence weed control under flooded paddy conditions; format: in vivo, Cyperus iria; conditions: postemergence weeds, 3-4 weeks after treatment
Outline: (§3)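 Injury ratings (0–9 scale covering stand, vigor, malformation, size, chlorosis and overall appearance versus control) were made three to four weeks after treatment. Test material, about 0.0313 to 0.500 kg/ha a.i. in 50/50 v/v aqueous/acetone, was added to flood water 1.5 to 3 cm deep over 3 to 5 cm weeds and 1.5 to 2.5 leaf rice.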

ORYSAT (Rice, Tebonnet) = experiment: Preemergence herbicidal evaluation; format: in vivo, Oryza sativa, (L.) Tebonnet; conditions: rated 4-5 weeks after treatment
Outline: as §2

ECHCG (Barnyardgrass) = experiment: Preemergence herbicidal evaluation; format: in vivo, Echinochloa crus-galli; conditions: rated 4-5 weeks after treatment
Outline: as §2

SETVI (Foxtail, Green) = experiment: Preemergence herbicidal evaluation; format: in vivo, Setaria viridis; conditions: rated 4-5 weeks after treatment
Outline: as §2

[3] = test system: ECHORC (Watergrass (Calif.)); experiment: Postemergence weed control under flooded paddy conditions; format: in vivo, Echinochloa oryzoides; conditions: postemergence weeds, 3-4 weeks after treatment
Outline: as §3

MOOVA (Monochoria) = experiment: Preemergence weed control under flooded paddy conditions; format: in vivo, Monochoria vaginalis; conditions: rated 3-4 weeks after treatment
Outline: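 Silt loam, seeds in top 0.5 cm; flood held 1.5-3 cm; test cpd as acetone/water 50/50 into flood water, ~0.0313-0.500 kg/ha a.i.; greenhouse 3-4 wk; visual 0-9 score vs control.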

[4] = test system: CHEAL (Lambsquarters, Common); experiment: Preemergence herbicidal evaluation; format: in vivo, Chenopodium album; conditions: rated 4-5 weeks after treatment
Outline: as §2

[5] = test system: ECHORC (Watergrass (Calif.)); experiment: Preemergence weed control under flooded paddy conditions; format: in vivo, Echinochloa oryzoides; conditions: rated 3-4 weeks after treatment
Outline: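 First, seeds or propagules go into the top 0.5 cm of silt loam; next, water is held 1.5 to 3 cm over the soil; then compound (50/50 acetone/water) is pipetted into it at about 0.0313 to 0.500 kg/ha; finally plants are rated visually 0-9 after three to four weeks.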

ABUTH (Velvetleaf) = experiment: Postemergence herbicidal evaluation; format: in vivo, Abutilon theophrasti; conditions: postemergence
Outline: as §1

CN1C(=O)CSC1=Nc1cc(N2C(=O)C3=C(CCCC3)C2=O)c(F)cc1Cl [Compound 1, N-{4-chloro-2-fluoro-5-[(3-methyl-4-oxo-2-thiazolidinylidene)amino]phenyl}-1-cyclohexene-1,2-dicarboximide]
TRZAWR herbicidal rating ([1]; rate 0.0157 kg/ha): 2.5 | TRZAWR herbicidal rating ([1]; rate 0.0313 kg/ha): 3.5 | TRZAWR herbicidal rating ([1]; rate 0.0625 kg/ha): 4.0 | TRZAWR herbicidal rating ([1]; rate 0.1250 kg/ha): 5.0 | TRZAWR herbicidal rating ([1]; rate 0.2500 kg/ha): 5.5 | TRZAWR herbicidal rating ([1]; rate 0.5000 kg/ha): 6.0 | TRZAWR preemergence herbicidal rating ([2]; rate 0.0313 kg/ha): 2.0 | TRZAWR preemergence herbicidal rating ([2]; rate 0.0625 kg/ha): 4.0 | TRZAWR preemergence herbicidal rating ([2]; rate 0.1250 kg/ha): 3.0 | TRZAWR preemergence herbicidal rating ([2]; rate 0.2500 kg/ha): 6.0 | TRZAWR preemergence herbicidal rating ([2]; rate 0.5000 kg/ha): 6.0 | Herbicidal rating CYPIR (CYPIR (Rice Flatsedge); rate 0.0313 kg/ha): 1.0 | Herbicidal rating CYPIR (CYPIR (Rice Flatsedge); rate 0.0625 kg/ha): 3.5 | Herbicidal rating CYPIR (CYPIR (Rice Flatsedge); rate 0.1250 kg/ha): 5.5 | Herbicidal rating CYPIR (CYPIR (Rice Flatsedge); rate 0.2500 kg/ha): 6.5 | Herbicidal rating CYPIR (CYPIR (Rice Flatsedge); rate 0.5000 kg/ha): 8.5 | ORYSAT preemergence herbicidal rating (ORYSAT (Rice, Tebonnet); rate 0.0313 kg/ha): 0.0 | ORYSAT preemergence herbicidal rating (ORYSAT (Rice, Tebonnet); rate 0.0625 kg/ha): 0.0 | ORYSAT preemergence herbicidal rating (ORYSAT (Rice, Tebonnet); rate 0.1250 kg/ha): 2.0 | ORYSAT preemergence herbicidal rating (ORYSAT (Rice, Tebonnet); rate 0.2500 kg/ha): 3.0 | ORYSAT preemergence herbicidal rating (ORYSAT (Rice, Tebonnet); rate 0.5000 kg/ha): 6.0 | ECHCG preemergence herbicidal rating (ECHCG (Barnyardgrass); rate 0.0313 kg/ha): 2.0 | ECHCG preemergence herbicidal rating (ECHCG (Barnyardgrass); rate 0.0625 kg/ha): 5.0 | ECHCG preemergence herbicidal rating (ECHCG (Barnyardgrass); rate 0.1250 kg/ha): 6.0 | ECHCG preemergence herbicidal rating (ECHCG (Barnyardgrass); rate 0.2500 kg/ha): 5.0 | ECHCG preemergence herbicidal rating (ECHCG (Barnyardgrass); rate 0.5000 kg/ha): 7.7 | SETVI preemergence herbicidal rating (SETVI (Foxtail, Green); rate 0.0313 kg/ha): 5.0 | SETVI preemergence herbicidal rating (SETVI (Foxtail, Green); rate 0.0625 kg/ha): 9.0 | SETVI preemergence herbicidal rating (SETVI (Foxtail, Green); rate 0.1250 kg/ha): 8.0 | SETVI preemergence herbicidal rating (SETVI (Foxtail, Green); rate 0.2500 kg/ha): 9.0 | SETVI preemergence herbicidal rating (SETVI (Foxtail, Green); rate 0.5000 kg/ha): 8.0 | Herbicidal rating ECHORC ([3]; rate 0.0313 kg/ha): 1.0 | Herbicidal rating ECHORC ([3]; rate 0.0625 kg/ha): 2.0 | Herbicidal rating ECHORC ([3]; rate 0.1250 kg/ha): 3.0 | Herbicidal rating ECHORC ([3]; rate 0.2500 kg/ha): 3.5 | Herbicidal rating ECHORC ([3]; rate 0.5000 kg/ha): 5.5 | Herbicidal rating MOOVA (MOOVA (Monochoria); 0.0313 kg/ha): 8.0 | Herbicidal rating MOOVA (MOOVA (Monochoria); 0.0625 kg/ha): 9.0 | Herbicidal rating MOOVA (MOOVA (Monochoria); 0.1250 kg/ha): 9.0 | Herbicidal rating MOOVA (MOOVA (Monochoria); 0.2500 kg/ha): 9.0 | Herbicidal rating MOOVA (MOOVA (Monochoria); 0.5000 kg/ha): 9.0 | CHEAL preemergence herbicidal rating ([4]; rate 0.0313 kg/ha): 9.0 | CHEAL preemergence herbicidal rating ([4]; rate 0.0625 kg/ha): 9.0 | CHEAL preemergence herbicidal rating ([4]; rate 0.1250 kg/ha): 9.0 | CHEAL preemergence herbicidal rating ([4]; rate 0.2500 kg/ha): 9.0 | CHEAL preemergence herbicidal rating ([4]; rate 0.5000 kg/ha): 9.0 | Herbicidal rating ECHORC ([5]; 0.0313 kg/ha): 2.0 | Herbicidal rating ECHORC ([5]; 0.0625 kg/ha): 4.0 | Herbicidal rating ECHORC ([5]; 0.1250 kg/ha): 6.0 | Herbicidal rating ECHORC ([5]; 0.2500 kg/ha): 7.0 | Herbicidal rating ECHORC ([5]; 0.5000 kg/ha): 9.0 | ABUTH herbicidal rating (ABUTH (Velvetleaf); rate 0.0157 kg/ha): 5.0 | ABUTH herbicidal rating (ABUTH (Velvetleaf); rate 0.0313 kg/ha): 8.0 | ABUTH herbicidal rating (ABUTH (Velvetleaf); rate 0.0625 kg/ha): 8.0 | ABUTH herbicidal rating (ABUTH (Velvetleaf); rate 0.1250 kg/ha): 9.0 | ABUTH herbicidal rating (ABUTH (Velvetleaf); rate 0.2500 kg/ha): 9.0 | ABUTH herbicidal rating (ABUTH (Velvetleaf); rate 0.5000 kg/ha): 9.0

Source: US20020137929A1, “1 - (3-heterocyclylphenyl) isothiourea, -isourea, -guanidine and -amidine herbicidal agents” (Intellectual Property Department, BASF Aktiengesellschaft, priority 1998, published 2002)
